We go through 41 compounds from ChEMBL document CHEMBL6109084 (Eur J Med Chem, 2025).

A value given as a limit tells only on which side of the number the result lay.

The IC50 is the point on the concentration scale where inhibition reaches its midpoint. Lower therefore signals greater potency in that assay.

The target in one assay is Coagulation factor XI (Homo sapiens, UniProt P03951). Put plainly: Inhibition of human FXIa using p-Glu-Pro-Arg-pNA.HCl as substrate incubated for 30 mins followed by substrate addition and measured after 60 mins by microplate reader analysis.
In a further assay the test system is Plasma. Put plainly: Anticoagulant activity in citrated human plasma assessed as prolongation of activated partial thromboplastin time at 1 uM incubated for 3 mins by aPTT reagent based automated coagulometric analysis relative to control. The assay is classed as functional. As to conditions: 0.05 h.

Coagulation factor XI, sequence (P03951 19-387 limits assumed): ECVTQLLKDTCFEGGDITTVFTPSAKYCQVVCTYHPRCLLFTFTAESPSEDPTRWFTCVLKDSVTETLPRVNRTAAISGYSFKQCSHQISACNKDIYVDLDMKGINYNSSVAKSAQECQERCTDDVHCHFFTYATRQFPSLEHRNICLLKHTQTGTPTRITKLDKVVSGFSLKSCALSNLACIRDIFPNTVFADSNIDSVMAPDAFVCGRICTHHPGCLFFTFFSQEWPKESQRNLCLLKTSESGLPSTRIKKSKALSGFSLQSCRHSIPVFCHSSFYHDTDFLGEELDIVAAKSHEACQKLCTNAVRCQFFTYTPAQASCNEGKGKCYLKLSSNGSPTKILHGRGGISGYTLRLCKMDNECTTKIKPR
Coagulation factor XI, sequence (P03951 388-625 limits assumed): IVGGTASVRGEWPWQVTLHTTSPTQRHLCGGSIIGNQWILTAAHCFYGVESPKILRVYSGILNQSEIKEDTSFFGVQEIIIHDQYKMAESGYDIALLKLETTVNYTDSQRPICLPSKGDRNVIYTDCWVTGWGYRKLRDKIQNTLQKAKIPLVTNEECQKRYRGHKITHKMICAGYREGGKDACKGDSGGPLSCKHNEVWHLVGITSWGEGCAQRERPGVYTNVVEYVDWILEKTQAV

For `COc1cn(Cc2ccc(F)c(-c3ccc(O)cc3)c2)c(=O)cc1-c1cc(Cl)ccc1-n1cnnn1`, on Coagulation factor XI, the IC50 worked out at 1.4 nM. In addition, the Activity in the assay with Plasma is on record as 63.2%. In the same order, the values of `CCC(c1cccc(-c2ccc(N)nc2)c1)n1cc(OC)c(-c2cc(Cl)ccc2-n2cc(Cl)nn2)cc1=O` (centres undefined) are 1.6 nM and 55.6%.

At Coagulation factor XI, `COc1cn(Cc2ccc(F)c(-c3ccncc3)c2)c(=O)cc1-c1cc(Cl)ccc1-n1cnnn1` had an IC50 of 1.8 nM. In addition, the Activity in the assay with Plasma is reported as 129.8%. For `COc1cn(Cc2cccc(-c3ccncc3)c2)c(=O)cc1-c1cc(Cl)ccc1-n1cc(Cl)nn1`, the IC50 against Coagulation factor XI turned out to be 4.2 nM. For the same compound, the Activity in the assay with Plasma is reported as 78.1%. In the same order, the values of `COc1cn(Cc2cccc(-c3ccc(O)cc3)c2)c(=O)cc1-c1cc(Cl)ccc1-n1cnnn1` are 1.7 nM and 26.6%. Turning to `COc1cn(Cc2cccc(-c3ccc4[nH]ncc4c3)c2)c(=O)cc1-c1cc(Cl)ccc1-n1cnnn1`, on Coagulation factor XI, the IC50 came to 4 nM. Besides, in the assay on Plasma, the Activity is reported as 38.7%. Regarding `COc1cn(Cc2cccc(-c3ccc(F)cc3)c2)c(=O)cc1-c1cc(Cl)ccc1-n1cnnn1`, the midpoint of inhibition against Coagulation factor XI, the IC50, lay at 10.1 nM. For the compound `COc1cn(C(C)c2cccc(-c3ccc(N)nc3)c2)c(=O)cc1-c1cc(Cl)ccc1-n1cnnn1` (centres undefined), 0.54 nM corresponded to half-maximal inhibition against Coagulation factor XI (IC50). For the same compound, the Activity in the assay with Plasma stood at 74.3%.

Turning to `COc1ccc(Cn2cc(OC)c(-c3cc(Cl)ccc3-n3cnnn3)cc2=O)cc1-c1ccncc1`, at Coagulation factor XI, half-maximal inhibition (IC50) required 2.1 nM. Further, the Activity with Plasma is on record as 70%. `COc1cn(Cc2cccc(-c3ccc(N)nc3F)c2)c(=O)cc1-c1cc(Cl)ccc1-n1cnnn1`: the IC50 against Coagulation factor XI is 0.39 nM. The Activity in the assay with Plasma came to 103.4%.

In turn, `COc1cn(Cc2cccc(-c3ccc(NC(C)=O)cc3)c2)c(=O)cc1-c1cc(Cl)ccc1-n1cnnn1` yielded an IC50 on Coagulation factor XI of 6.4 nM. Further, the Activity in the assay with Plasma worked out at 50.8%. The corresponding values for `CC[C@H](c1cc(-c2ccc(N)nc2F)ccn1)n1cc(OC)c(-c2cc(Cl)ccc2-n2cnnn2)cc1=O` are 6.7 nM and 56.3%. In the case of `COc1cn(Cc2ccc(F)c(-c3ccc(N)nc3)c2)c(=O)cc1-c1cc(Cl)ccc1-n1cc(Cl)nn1`, the midpoint of inhibition against Coagulation factor XI, the IC50, lay at 3.2 nM. In addition, the Activity in the assay on Plasma is given as 55.4%. The corresponding values for `COc1cn(Cc2ccc(F)c(-c3ccncc3)c2)c(=O)cc1-c1cc(Cl)ccc1-n1cc(Cl)nn1` are 4.9 nM and 74.7%. In the case of `COc1cn(Cc2ccnc(-c3ccc(N)nc3)c2)c(=O)cc1-c1cc(Cl)ccc1-n1cnnn1`, half-maximal inhibition against Coagulation factor XI (IC50) was put at 0.33 nM. Moreover, the Activity in the assay with Plasma worked out at 112.5%. In the case of `COc1cn(Cc2cccc(-c3ccncc3)c2)c(=O)cc1-c1cc(Cl)ccc1OC(F)F`, at Coagulation factor XI, the IC50 is > 500 nM. The same measure, in the same setting: to `COc1cn(Cc2cccc(-c3ccncc3)c2)c(=O)cc1-c1cc(Cl)ccc1C(F)F` belongs > 1000 nM.

On Coagulation factor XI, `COc1cn(Cc2ccc(F)c(-c3ccc(C(N)=O)cc3F)c2)c(=O)cc1-c1cc(Cl)ccc1-n1cnnn1` came in with an IC50 of 4.7 nM. For the same compound, in the assay on Plasma, the Activity is on record as 47%. `COc1cn(Cc2cc(-c3cnc(N)nc3)ccn2)c(=O)cc1-c1cc(Cl)ccc1-n1cnnn1` returned an IC50 against Coagulation factor XI of 95.3 nM. `COc1cn(Cc2cccc(-c3ccc(C(N)=O)cc3F)c2)c(=O)cc1-c1cc(Cl)ccc1-n1cnnn1` displayed an IC50 at Coagulation factor XI of 3 nM. In addition, in the assay with Plasma, the Activity turned out to be 82.8%. `COc1ccc(-c2cccc(Cn3cc(OC)c(-c4cc(Cl)ccc4-n4cnnn4)cc3=O)c2)cc1` registered an IC50 against Coagulation factor XI of 129 nM. `COc1ccc(Cn2cc(OC)c(-c3cc(Cl)ccc3-n3cnnn3)cc2=O)cc1-c1ccc(N)nc1` yielded an IC50 against Coagulation factor XI of 1.7 nM. Besides, in the assay with Plasma, the Activity amounted to 50.4%. The corresponding values for `COc1cn(C(C)c2ccc(F)c(-c3ccc(N)nc3)c2)c(=O)cc1-c1cc(Cl)ccc1-n1cnnn1` (centres undefined) are 1.4 nM and 14.8%.

Regarding `COc1cn(C(C)c2cccc(-c3ccncc3)c2)c(=O)cc1-c1cc(Cl)ccc1-n1cnnn1` (centres undefined), the IC50 against Coagulation factor XI came to 2.4 nM. For the same compound, the Activity with Plasma is listed as 80.1%. Take `COc1cn(Cc2cccc(-c3ccc(N)nc3)c2)c(=O)cc1-c1cc(Cl)ccc1OC(F)F`: on Coagulation factor XI, the IC50 was > 500 nM.

As for `COc1cn(Cc2cccc(-c3ccc(F)cc3F)c2)c(=O)cc1-c1cc(Cl)ccc1-n1cnnn1`, at Coagulation factor XI, the IC50 was 15.1 nM.

Compound `COc1cn(Cc2ccnc(-c3ccncc3)c2)c(=O)cc1-c1cc(Cl)ccc1-n1cnnn1` had an IC50 against Coagulation factor XI of 2.3 nM. The Activity with Plasma is 113.1%.

On Coagulation factor XI, `CNC(=O)c1ccc(-c2cc(Cn3cc(OC)c(-c4cc(Cl)ccc4-n4cnnn4)cc3=O)ccc2F)cc1` yielded an IC50 of 5.2 nM. Moreover, the Activity in the assay with Plasma is recorded as 49.9%.

On Coagulation factor XI, `CNC(=O)c1ccc(-c2cccc(Cn3cc(OC)c(-c4cc(Cl)ccc4-n4cnnn4)cc3=O)c2)cc1` had an IC50 of 5.9 nM. Further, in the assay with Plasma, the Activity is listed as 45.4%.

On to `COc1cn(Cc2ccc(F)c(-c3ccc(NC(C)=O)cc3)c2)c(=O)cc1-c1cc(Cl)ccc1-n1cnnn1`, for which the IC50 against Coagulation factor XI was 1.9 nM. Moreover, the Activity in the assay on Plasma was 86.8%.

As for `COc1cn(Cc2cccc(-c3ccc(N)nc3)c2)c(=O)cc1-c1cc(Cl)ccc1-n1cc(Cl)nn1`, the IC50 against Coagulation factor XI is 2.2 nM. The Activity in the assay on Plasma turned out to be 82.8%. In the case of `COc1cn(Cc2ccc3ccccc3c2)c(=O)cc1-c1cc(Cl)ccc1-n1cnnn1`, the IC50 against Coagulation factor XI was 39 nM. Regarding `CCC(c1cc(-c2ccc(N)nc2F)ccn1)n1cc(OC)c(-c2cc(Cl)ccc2-n2cnnn2)cc1=O` (racemic), the IC50 against Coagulation factor XI worked out at 0.39 nM. The Activity with Plasma is given as 97.2%. Take `COc1cn(Cc2cccc(-c3ccc(N(C)C)cc3)c2)c(=O)cc1-c1cc(Cl)ccc1-n1cnnn1`: at Coagulation factor XI, the IC50 is > 500 nM. For the compound `COc1cn(Cc2ccc(F)c(-c3ccc(N)nc3)c2)c(=O)cc1-c1cc(Cl)ccc1-n1cnnn1`, the midpoint of inhibition on Coagulation factor XI, the IC50, lay at 0.69 nM. Further, the Activity in the assay on Plasma is 128.5%. Compound `COc1cn(Cc2cccc(-c3ccc(N)nc3)c2)c(=O)cc1-c1cc(Cl)ccc1-n1cnnn1` yielded an IC50 at Coagulation factor XI of 0.35 nM. Further, the Activity with Plasma is listed as 143.3%. Turning to `COc1cn(Cc2cccc(-c3ccc(N)nc3)c2)c(=O)cc1-c1cc(Cl)ccc1C(F)F`, the IC50 against Coagulation factor XI is > 1000 nM.

For `COc1cn(Cc2ccc(-c3ccc(O)cc3)cc2)c(=O)cc1-c1cc(Cl)ccc1-n1cnnn1`, the IC50 at Coagulation factor XI amounted to 203 nM. On the same count and under the same terms, the value for `COc1c[nH]c(=O)cc1-c1cc(Cl)ccc1-n1cnnn1` was 1100 nM. Compound `COc1cn(Cc2ccc(F)c(-c3ccc4[nH]ncc4c3)c2)c(=O)cc1-c1cc(Cl)ccc1-n1cnnn1` returned an IC50 on Coagulation factor XI of 1.3 nM. Besides, the Activity with Plasma was found to be 57.1%. Turning to `COc1cn(Cc2cccc(-c3cnc(N)nc3)c2)c(=O)cc1-c1cc(Cl)ccc1-n1cnnn1`, the IC50 against Coagulation factor XI turned out to be 11.5 nM.
